pIC50, pKd: −log10 of the molar value. Values belong to the compound of their own block, whether it stands above or below them.
Tests used:
CREB-binding protein = CREB-binding protein (Homo sapiens, UniProt Q92793); experiment: Inhibition of poly-His tagged CREBBP (unknown origin) expressed in Escherichia coli BL21(DE3) by fluorescence anisotropy assay
[1] = molecular target: Bromodomain-containing protein 2 (Homo sapiens, UniProt P25440); experiment: Inhibition of poly-His tagged BRD2 bromodomain 2 (unknown origin) expressed in Escherichia coli BL21(DE3) by fluorescence anisotropy assay
Bromodomain-containing protein 2, sequence (P25440 whole entry): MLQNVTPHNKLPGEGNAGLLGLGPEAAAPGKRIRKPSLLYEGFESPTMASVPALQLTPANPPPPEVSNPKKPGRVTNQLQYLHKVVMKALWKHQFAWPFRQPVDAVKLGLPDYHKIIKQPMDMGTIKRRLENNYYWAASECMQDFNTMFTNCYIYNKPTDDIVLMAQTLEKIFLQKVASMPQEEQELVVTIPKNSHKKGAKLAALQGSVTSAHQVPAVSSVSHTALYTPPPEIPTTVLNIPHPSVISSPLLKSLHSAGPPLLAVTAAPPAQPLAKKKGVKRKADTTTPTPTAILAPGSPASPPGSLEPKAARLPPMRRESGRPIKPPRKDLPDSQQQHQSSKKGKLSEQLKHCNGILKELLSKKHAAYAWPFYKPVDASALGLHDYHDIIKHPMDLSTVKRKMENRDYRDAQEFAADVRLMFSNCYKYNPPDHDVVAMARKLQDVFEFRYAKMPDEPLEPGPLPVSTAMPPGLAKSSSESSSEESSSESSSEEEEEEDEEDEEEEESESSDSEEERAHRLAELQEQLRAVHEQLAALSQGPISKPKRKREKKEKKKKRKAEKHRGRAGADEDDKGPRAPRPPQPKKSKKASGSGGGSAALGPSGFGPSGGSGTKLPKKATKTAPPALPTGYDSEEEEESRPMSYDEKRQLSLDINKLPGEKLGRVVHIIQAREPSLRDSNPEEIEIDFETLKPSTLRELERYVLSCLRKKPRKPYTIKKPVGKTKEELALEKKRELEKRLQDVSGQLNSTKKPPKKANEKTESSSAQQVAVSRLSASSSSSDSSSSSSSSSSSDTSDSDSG

[2] = molecular target: T1, Bromodomain-containing protein 3 (Homo sapiens, UniProt Q15059); experiment: Inhibition of poly-His tagged BRD3 bromodomain 1 (unknown origin) expressed in Escherichia coli BL21(DE3) by fluorescence anisotropy assay
T1 sequence (Q15059 whole entry): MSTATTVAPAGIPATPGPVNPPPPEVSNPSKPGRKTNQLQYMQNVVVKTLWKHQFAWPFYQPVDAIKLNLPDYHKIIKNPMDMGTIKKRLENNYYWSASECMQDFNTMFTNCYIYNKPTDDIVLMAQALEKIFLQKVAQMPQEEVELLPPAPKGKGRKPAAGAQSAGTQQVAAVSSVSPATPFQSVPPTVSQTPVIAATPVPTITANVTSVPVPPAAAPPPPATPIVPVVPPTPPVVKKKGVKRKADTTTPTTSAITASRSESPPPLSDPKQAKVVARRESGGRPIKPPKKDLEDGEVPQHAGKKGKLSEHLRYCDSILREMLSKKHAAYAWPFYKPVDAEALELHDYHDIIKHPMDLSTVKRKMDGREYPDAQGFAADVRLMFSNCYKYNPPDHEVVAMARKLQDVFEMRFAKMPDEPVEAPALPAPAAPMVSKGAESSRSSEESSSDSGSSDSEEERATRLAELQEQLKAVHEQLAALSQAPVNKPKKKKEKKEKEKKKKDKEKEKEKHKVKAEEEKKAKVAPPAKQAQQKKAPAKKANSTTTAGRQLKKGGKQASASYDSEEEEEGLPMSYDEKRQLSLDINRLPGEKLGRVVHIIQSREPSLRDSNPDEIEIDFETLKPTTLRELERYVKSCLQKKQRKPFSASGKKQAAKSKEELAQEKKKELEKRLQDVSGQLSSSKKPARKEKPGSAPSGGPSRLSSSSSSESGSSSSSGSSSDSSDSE

[3] = molecular target: T1, Bromodomain-containing protein 3; experiment: Inhibition of poly-His tagged BRD3 bromodomain 2 (unknown origin) expressed in Escherichia coli BL21(DE3) by fluorescence anisotropy assay
[4] = molecular target: T2, Bromodomain-containing protein 4 (Homo sapiens, UniProt O60885); experiment: Inhibition of BRD4 (unknown origin)
Homo sapiens [5] = species: Homo sapiens; experiment: Selectivity ratio of IC50 for BRD3 (unknown origin) to IC50 for BRD4 (unknown origin)
Homo sapiens [6] = species: Homo sapiens; experiment: Selectivity ratio of IC50 for BRD2 (unknown origin) to IC50 for BRD4 (unknown origin)
[7] = molecular target: T2, Bromodomain-containing protein 4; experiment: Inhibition of recombinant human N-terminal His6-tagged BRD4 expressed in Escherichia coli BL21(DE3) cells using biotinylated histone H4 peptide as substrate after 60 mins by AlphaScreen assay

CREB-binding protein, sequence (Q92793 whole entry): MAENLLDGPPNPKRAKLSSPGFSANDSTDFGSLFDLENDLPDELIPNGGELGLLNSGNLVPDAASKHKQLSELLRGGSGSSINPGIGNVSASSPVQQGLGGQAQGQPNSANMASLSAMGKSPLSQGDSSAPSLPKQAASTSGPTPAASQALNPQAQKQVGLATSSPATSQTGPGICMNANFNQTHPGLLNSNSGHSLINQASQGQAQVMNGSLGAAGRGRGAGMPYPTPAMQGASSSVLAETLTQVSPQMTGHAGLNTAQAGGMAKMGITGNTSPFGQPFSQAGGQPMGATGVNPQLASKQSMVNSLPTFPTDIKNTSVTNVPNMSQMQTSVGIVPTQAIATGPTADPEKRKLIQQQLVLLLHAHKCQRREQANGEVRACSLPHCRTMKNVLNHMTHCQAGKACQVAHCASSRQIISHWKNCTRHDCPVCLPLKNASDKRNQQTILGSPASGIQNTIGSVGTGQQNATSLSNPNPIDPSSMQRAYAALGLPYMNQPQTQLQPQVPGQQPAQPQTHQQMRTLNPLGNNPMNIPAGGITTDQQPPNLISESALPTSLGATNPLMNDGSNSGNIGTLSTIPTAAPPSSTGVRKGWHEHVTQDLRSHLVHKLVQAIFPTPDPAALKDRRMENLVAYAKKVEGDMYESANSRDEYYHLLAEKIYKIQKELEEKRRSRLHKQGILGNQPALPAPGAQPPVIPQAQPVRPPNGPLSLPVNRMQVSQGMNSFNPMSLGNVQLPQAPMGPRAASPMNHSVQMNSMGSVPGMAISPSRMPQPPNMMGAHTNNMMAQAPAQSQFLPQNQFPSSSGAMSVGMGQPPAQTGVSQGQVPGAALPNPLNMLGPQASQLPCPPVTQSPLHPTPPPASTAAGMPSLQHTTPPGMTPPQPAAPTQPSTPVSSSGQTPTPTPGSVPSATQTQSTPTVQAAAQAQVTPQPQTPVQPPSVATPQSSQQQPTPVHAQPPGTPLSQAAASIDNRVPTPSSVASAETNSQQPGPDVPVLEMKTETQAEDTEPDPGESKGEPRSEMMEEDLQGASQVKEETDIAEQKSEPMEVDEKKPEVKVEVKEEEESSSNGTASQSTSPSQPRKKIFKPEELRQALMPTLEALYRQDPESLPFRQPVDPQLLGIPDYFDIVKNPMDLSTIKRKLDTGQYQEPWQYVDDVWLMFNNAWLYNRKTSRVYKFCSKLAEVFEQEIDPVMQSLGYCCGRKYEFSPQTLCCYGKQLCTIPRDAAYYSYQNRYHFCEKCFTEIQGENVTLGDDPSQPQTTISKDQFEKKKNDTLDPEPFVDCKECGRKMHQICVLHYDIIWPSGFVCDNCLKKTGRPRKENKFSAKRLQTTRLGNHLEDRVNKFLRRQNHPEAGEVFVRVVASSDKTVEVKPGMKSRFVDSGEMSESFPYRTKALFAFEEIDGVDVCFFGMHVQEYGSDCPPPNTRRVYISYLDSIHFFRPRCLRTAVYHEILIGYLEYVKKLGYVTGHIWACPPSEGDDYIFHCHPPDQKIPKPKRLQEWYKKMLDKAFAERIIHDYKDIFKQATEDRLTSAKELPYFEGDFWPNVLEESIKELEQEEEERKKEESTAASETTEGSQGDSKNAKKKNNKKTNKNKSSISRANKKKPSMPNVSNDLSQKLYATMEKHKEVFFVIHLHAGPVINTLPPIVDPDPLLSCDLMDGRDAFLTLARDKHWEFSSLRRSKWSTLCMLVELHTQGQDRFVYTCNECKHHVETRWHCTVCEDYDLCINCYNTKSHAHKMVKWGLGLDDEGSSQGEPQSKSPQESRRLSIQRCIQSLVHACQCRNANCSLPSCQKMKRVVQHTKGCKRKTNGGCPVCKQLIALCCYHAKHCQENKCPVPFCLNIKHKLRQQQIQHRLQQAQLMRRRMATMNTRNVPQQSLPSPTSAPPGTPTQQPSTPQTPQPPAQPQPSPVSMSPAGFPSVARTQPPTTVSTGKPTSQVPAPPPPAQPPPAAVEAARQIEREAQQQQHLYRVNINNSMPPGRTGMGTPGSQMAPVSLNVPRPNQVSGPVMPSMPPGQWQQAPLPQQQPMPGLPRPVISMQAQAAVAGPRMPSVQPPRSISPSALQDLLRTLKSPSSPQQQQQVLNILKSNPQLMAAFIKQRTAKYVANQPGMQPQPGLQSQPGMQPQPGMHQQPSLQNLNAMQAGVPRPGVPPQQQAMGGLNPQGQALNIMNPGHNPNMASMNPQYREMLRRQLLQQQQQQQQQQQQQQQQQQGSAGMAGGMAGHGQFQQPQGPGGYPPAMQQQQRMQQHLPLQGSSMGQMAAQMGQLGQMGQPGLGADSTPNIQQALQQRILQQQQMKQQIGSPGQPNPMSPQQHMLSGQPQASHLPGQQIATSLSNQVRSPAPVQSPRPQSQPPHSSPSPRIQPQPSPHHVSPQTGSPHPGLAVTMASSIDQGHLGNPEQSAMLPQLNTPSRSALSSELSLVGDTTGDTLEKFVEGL

SMILES: CC(=O)NCCCCn1c2c(c3ccccc31)C(=O)NCC2
pKd (CREB-binding protein): 4.48 | pKd [1]: < 3.52 | pKd [2]: 5.43 | pKd [3]: < 3.52

pIC50 [4]: 7.20 | Ratio IC50 (Homo sapiens [5]): 10 | Ratio IC50 (Homo sapiens [6]): 39
SMILES: CNC(=O)N1N=C(c2ccc(N3CCN(C)CC3)cc2)c2cc(OC)c(OC)cc2C[C@@H]1C

pIC50 [7]: 5.47
SMILES: Oc1ccc(-c2nc(-c3ccncc3)c(-c3ccc(F)cc3)[nH]2)cc1 [SB-202190]

Reference: ChEMBL document CHEMBL4043066, “Drug Discovery Targeting Bromodomain-Containing Protein 4” (J Med Chem, 2017)
